Assay results from patent publication US20230117324A1, “OXAZINE MONOACYLGLYCEROL LIPASE (MAGL) INHIBITORS” (Hoffmann-La Roche Inc., priority 2018, published 2023).

Molecular target: T1, MAGL (Homo sapiens, UniProt Q99685)
T1 sequence (Q99685 1-303): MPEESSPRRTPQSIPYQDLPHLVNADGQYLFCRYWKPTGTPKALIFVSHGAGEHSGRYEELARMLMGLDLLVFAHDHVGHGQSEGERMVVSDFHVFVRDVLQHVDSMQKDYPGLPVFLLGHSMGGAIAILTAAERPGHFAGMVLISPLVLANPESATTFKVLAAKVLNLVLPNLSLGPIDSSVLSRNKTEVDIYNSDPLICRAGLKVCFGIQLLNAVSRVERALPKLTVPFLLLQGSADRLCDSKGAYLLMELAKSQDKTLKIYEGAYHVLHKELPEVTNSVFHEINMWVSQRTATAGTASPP
Assay: MAGL inhibition, 2-AG assay (hydrolysis of 2-arachidonoylglycerol, arachidonic acid by mass spectrometry)
Format: biochemical
Settings: 2-AG assay (footnote [b])
Outline: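 Hydrolysis of 8 μM 2-arachidonoylglycerol by […] was run for 30 min at RT after a 15 min compound preincubation, in Tris/EDTA/Tween buffer. Test compounds spanned […]. The product was measured by online SPE-MS/MS (transitions 303.1→259.1 and 311.1→267.0), and activity was derived from the arachidonic acid/d8-arachidonic acid signal ratio.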

| Compound | IC50 [nM] |
| --- | --- |
| CC(OC1CN(c2ccc(C3CN(C(=O)N4CC[C@@H]5OCC(=O)N[C@@H]5C4)C3)cc2)C1)C(F)(F)F (stereo partly drawn) [Example 138, (4aR,8aS)-6-(3-(4-(3-((1,1,1-Trifluoropropan-2-yl)oxy)azetidin-1-yl)phenyl)azetidine-1-carbonyl)hexahydro-2H-pyrido[4,3-b][1,4]oxazin-3(4H)-one] | 1 |
| O=C1CO[C@H]2CCN(C(=O)N3CC(c4cccc(Br)c4)C3)C[C@H]2N1 [Example 139, (4aR,8aS)-6-(3-(3-Bromophenyl)azetidine-1-carbonyl)hexahydro-2H-pyrido[4,3-b][1,4]oxazin-3(4H)-one] | 27 |
| CC(C)(C)c1ccc(C2CN(C(=O)N3CC[C@@H]4OCC(=O)N[C@@H]4C3)C2)cc1 [Example 140, (4aR,8aS)-6-(3-(4-(tert-Butyl)phenyl)azetidine-1-carbonyl)hexahydro-2H-pyrido[4,3-b][1,4]oxazin-3(4H)-one] | 0.6 |
| O=C1CO[C@H]2CCN(C(=O)N3CC(c4ccc(-c5ccccc5)cc4)C3)C[C@H]2N1 [Example 141, (4aR,8aS)-6-[3-(4-Phenylphenyl)azetidine-1-carbonyl]-4,4a,5,7,8,8a-hexahydropyrido[4,3-b][1,4]oxazin-3-one] | 2 |
| O=C1CO[C@H]2CCN(C(=O)N3CC(c4ccc(-c5ccccc5C(F)F)cc4)C3)C[C@H]2N1 [Example 142, (4aR,8aS)-6-[3-[4-[2-(Difluoromethyl)phenyl]phenyl]azetidine-1-carbonyl]-4,4a,5,7,8,8a-hexahydropyrido[4,3-b][1,4]oxazin-3-one] | 0.1 |
| Cc1cccc(-c2ccc(C3CN(C(=O)N4CC[C@@H]5OCC(=O)N[C@@H]5C4)C3)cc2)c1 [Example 143, (4aR,8aS)-6-(3-(3′-Methyl-[1,1′-biphenyl]-4-yl)azetidine-1-carbonyl)hexahydro-2H-pyrido[4,3-b][1,4]oxazin-3(4H)-one] | 1 |
| Cc1ccc(-c2ccc(C3CN(C(=O)N4CC[C@@H]5OCC(=O)N[C@@H]5C4)C3)cc2)cc1 [Example 144, (4aR,8aS)-6-(3-(4′-Methyl-[1,1′-biphenyl]-4-yl)azetidine-1-carbonyl)hexahydro-2H-pyrido[4,3-b][1,4]oxazin-3(4H)-one] | 1 |
| O=C1CO[C@H]2CCN(C(=O)N3CC(c4ccc(Cl)nc4)C3)C[C@H]2N1 [Example 145, (4aR,8aS)-6-(3-(6-Chloropyridin-3-yl)azetidine-1-carbonyl)hexahydro-2H-pyrido[4,3-b][1,4]oxazin-3(4H)-one] | 4300 |
| O=C1CO[C@H]2CCN(C(=O)N3CC(c4ccc(C(F)(F)F)cc4)C3)C[C@H]2N1 [Example 146, (4aR,8aS)-6-(3-(4-(Trifluoromethyl)phenyl)azetidine-1-carbonyl)hexahydro-2H-pyrido[4,3-b][1,4]oxazin-3(4H)-one] | 34 |
| CC(C)(OC1CN(c2ccc(C3CN(C(=O)N4CC[C@@H]5OCC(=O)N[C@@H]5C4)C3)cc2)C1)C(F)(F)F [Example 147, (4aR,8aS)-6-(3-(4-(3-((1,1,1-Trifluoro-2-methylpropan-2-yl)oxy)azetidin-1-yl)phenyl)azetidine-1-carbonyl)hexahydro-2H-pyrido[4,3-b][1,4]oxazin-3(4H)-one] | 1 |
| CC(F)(F)c1ccc(C2CN(C(=O)N3CC[C@@H]4OCC(=O)N[C@@H]4C3)C2)cc1 [Example 148, (4aR,8aS)-6-(3-(4-(1,1-Difluoroethyl)phenyl)azetidine-1-carbonyl)hexahydro-2H-pyrido[4,3-b][1,4]oxazin-3(4H)-one] | 14 |
| CC1CN(c2ccc(C3CN(C(=O)N4CC[C@@H]5OCC(=O)N[C@@H]5C4)C3)cc2)C1 [Example 151, (4aR,8aS)-6-(3-(4-(3-Methylazetidin-1-yl)phenyl)azetidine-1-carbonyl)hexahydro-2H-pyrido[4,3-b][1,4]oxazin-3(4H)-one] | 5 |
| CC1(C)CCN(c2ccc(C3CN(C(=O)N4CC[C@@H]5OCC(=O)N[C@@H]5C4)C3)cc2)C1 [Example 152, (4aR,8aS)-6-(3-(4-(3,3-Dimethylpyrrolidin-1-yl)phenyl)azetidine-1-carbonyl)hexahydro-2H-pyrido[4,3-b][1,4]oxazin-3(4H)-one] | 0.4 |

More lines, now with the values ahead:

| IC50 [nM] | Compound |
| --- | --- |
| 2 | O=C1CO[C@H]2CCN(C(=O)N3CC(c4ccc(N5CC(OC(F)(F)F)C5)cc4)C3)C[C@H]2N1 [Example 153, (4aR,8aS)-6-(3-(4-(3-(Trifluoromethoxy)azetidin-1-yl)phenyl)azetidine-1-carbonyl)hexahydro-2H-pyrido[4,3-b][1,4]oxazin-3(4H)-one] |
| 1 | O=C1CO[C@H]2CCN(C(=O)N3CC(c4ccc(-c5ccc(Cl)cc5Cl)nc4)C3)C[C@H]2N1 [Example 154, (4aR,8aS)-6-(3-(6-(2,4-Dichlorophenyl)pyridin-3-yl)azetidine-1-carbonyl)hexahydro-2H-pyrido[4,3-b][1,4]oxazin-3(4H)-one] |
| 0.8 | CS(=O)(=O)c1ccc(-c2ccc(C3CN(C(=O)N4CC[C@@H]5OCC(=O)N[C@@H]5C4)C3)cc2)c(Cl)c1 [Example 155] |
| 24 | O=C1CO[C@H]2CCN(C(=O)N3CC(c4ccc(N5CC(F)(F)C5)cc4)C3)C[C@H]2N1 [Example 156, (4aR,8aS)-6-(3-(4-(3,3-Difluoroazetidin-1-yl)phenyl)azetidine-1-carbonyl)hexahydro-2H-pyrido[4,3-b][1,4]oxazin-3(4H)-one] |
| 289 | O=C1CO[C@H]2CCN(C(=O)N3CCC(c4ccc(Br)cc4)CC3)C[C@H]2N1 [Example 157, (4aR,8aS)-6-(4-(4-Bromophenyl)piperidine-1-carbonyl)hexahydro-2H-pyrido[4,3-b][1,4]oxazin-3(4H)-one] |
| 7 | O=C1CO[C@H]2CCN(C(=O)N3CC(c4ccc(OCC(F)(F)F)cc4)C3)C[C@H]2N1 [Example 158, (4aR,8aS)-6-[3-[4-(2,2,2-Trifluoroethoxy)phenyl]azetidine-1-carbonyl]-4,4a,5,7,8,8a-hexahydropyrido[4,3-b][1,4]oxazin-3-one] |
| 0.1 | N#Cc1cc(Cl)ccc1-c1ccc(C2CN(C(=O)N3CC[C@@H]4OCC(=O)N[C@@H]4C3)C2)cc1 [Example 159, 2-[4-[1-[(4aR,8aS)-3-Oxo-4,4a,5,7,8,8a-hexahydropyrido[4,3-b][1,4]oxazine-6-carbonyl]azetidin-3-yl]phenyl]-5-chloro-benzonitrile] |
| 0.3 | O=C1CO[C@H]2CCN(C(=O)N3CC(c4ccc(N5CCCC5C(F)(F)F)cc4)C3)C[C@H]2N1 (stereo partly drawn) [Example 162, (4aR,8aS)-6-(3-(4-(2-(Trifluoromethyl)pyrrolidin-1-yl)phenyl)azetidine-1-carbonyl)hexahydro-2H-pyrido[4,3-b][1,4]oxazin-3(4H)-one] |
| 0.7 | O=C1CO[C@H]2CCN(C(=O)N3CC(c4ccc(N5CCC(C(F)(F)F)C5)cc4)C3)C[C@H]2N1 (stereo partly drawn) [Example 163, (4aR,8aS)-6-(3-(4-(3-(Trifluoromethyl)pyrrolidin-1-yl)phenyl)azetidine-1-carbonyl)hexahydro-2H-pyrido[4,3-b][1,4]oxazin-3(4H)-one] |
| 82 | O=C1CO[C@H]2CCN(C(=O)N3CCC(c4cccc(Br)c4)C3)C[C@H]2N1 (stereo partly drawn) [Example 164, (4aR,8aS)-6-(3-(3-Bromophenyl)pyrrolidine-1-carbonyl)hexahydro-2H-pyrido[4,3-b][1,4]oxazin-3(4H)-one] |
| 0.4 | CCC1CCCN1c1ccc(C2CN(C(=O)N3CC[C@@H]4OCC(=O)N[C@@H]4C3)C2)cc1 (stereo partly drawn) [Example 165, (4aR,8aS)-6-[3-[4-(2-Ethylpyrrolidin-1-yl)phenyl]azetidine-1-carbonyl]-4,4a,5,7,8,8a-hexahydropyrido[4,3-b][1,4]oxazin-3-one] |
| 0.1 | N#Cc1cccc(Cl)c1-c1ccc(C2CN(C(=O)N3CC[C@@H]4OCC(=O)N[C@@H]4C3)C2)cc1 [Example 166, 2-[4-[1-[(4aR,8aS)-3-Oxo-4,4a,5,7,8,8a-hexahydropyrido[4,3-b][1,4]oxazine-6-carbonyl]azetidin-3-yl]phenyl]-3-chloro-benzonitrile] |
| 0.2 | O=C1CO[C@H]2CCN(C(=O)N3CC(c4ccc(N5CCCC5C5CC5)cc4)C3)C[C@H]2N1 (stereo partly drawn) [Example 167, (4aR,8aS)-6-(3-(4-(2-Cyclopropylpyrrolidin-1-yl)phenyl)azetidine-1-carbonyl)hexahydro-2H-pyrido[4,3-b][1,4]oxazin-3(4H)-one] |
| 3700 | O=C1CO[C@H]2CCN(C(=O)N3CCN(c4ccc(Br)cc4)CC3)C[C@H]2N1 [Example 168, (4aR,8aS)-6-(4-(4-Bromophenyl)piperazine-1-carbonyl)hexahydro-2H-pyrido[4,3-b][1,4]oxazin-3(4H)-one] |
| 4 | O=C1CO[C@H]2CCN(C(=O)N3CCC(c4ccc(-c5ccc(Cl)cc5Cl)cc4)CC3)C[C@H]2N1 [Example 169, (4aR,8aS)-6-(4-(2′,4′-Dichloro-[1,1′-biphenyl]-4-yl)piperidine-1-carbonyl)hexahydro-2H-pyrido[4,3-b][1,4]oxazin-3(4H)-one] |
| 2 | O=C1CO[C@H]2CCN(C(=O)N3CC(c4ccc(N5CC6CC6C5)cc4)C3)C[C@H]2N1 (stereo partly drawn) [Example 170, (4aR,8aS)-6-(3-(4-(3-Azabicyclo[3.1.0]hexan-3-yl)phenyl)azetidine-1-carbonyl)hexahydro-2H-pyrido[4,3-b][1,4]oxazin-3(4H)-one] |
